This note sets out measurements from patent US20120282266A1, “ANTI-NEOPLASTIC USES OF ARTEMIN ANTAGONISTS” (AUCKLAND UNISERVICES LIMITED, priority 2009, published 2012).

The test system of one test is BT549 PTX Res cells. Briefly: Cell function assays (monolayer viability, soft agar colony formation, 3D matrigel growth), BT549-PTX Res. The test is classed as cell-based. How it is done: (§1) For soft agar colony formation assay, cells were cultured in 96-well plates first covered with a layer of agar (0.5%). Cells were grown in medium containing 10% FBS. 5×10^3 cells were seeded into 100 μl 0.35% agarose and onto the 0.5% agarose base layer. 100 μl serum-supplemented medium containing drug or antibody was added on the top and changed every 3 days. The plates were incubated at 37° C. in a humidified incubator. After 10 days, alarmarBlue® was added (1:10 volume reagent, Invitrogen) and incubated at 37° C. for 4 hours, followed by measurement of fluorescence with excitation wavelength at 530 nm and emission wavelength at 590 nm.
For the 3D Matrigel™ culture, monolayer grown cells were harvested by trypsinization, taken up in the complete medium, and separated into single-cell suspension by several passages through a Pasteur pipette. After this, 50 μl complete medium containing 5,000 cells was added to 150 μl of growth factor reduced Matrigel™ (Becton Dickinson, Bedford, Mass.) diluted 1:1 with complete media with 20% FBS. […] Organoid formation was counted in randomly chosen fields with light microscopy. […]
Cell viability, soft agar colony formation assay and 3D matrigel growth assays were performed as described above in Example 1. For the cell viability assay, 3000 cells were seeded into 100 ul media(2% FBS) and every 24 h viability was determined.

Another test deals with ARTN. Nature of the test: Western blot for ARTN protein expression in BT549 and MDA-MB-231 cell pairs. The test is classed as cell-based, human. The settings on record: BT549 wild type cells, with paclitaxel vs without paclitaxel. How it is done: Western blot analysis was performed as described previously (Liu and Lobie, 2007) using the following antibodies: goat anti-artemin polyclonal antibody (R&D systems, Minneapolis, Minn.) and mouse anti-β-Actin monoclonal antibody (Sigma, St Louis, Mo.).
Western blot analysis was performed as described above in Example 1.
Reagents, Western blot analysis, and cell function and viability assays were all done as described above in Example 2.

Test [1] deals with TAMS cells (tamoxifen sensitive MCF-7). Nature of the test: Cell number growth assay in estrogen free medium, TAMS cells. The class given is cell-based, human. The settings on record: 1 μM tamoxifen, 7 days. On the procedure:
(§2) For estrogen-free cell culture, MCF-7 cells were cultured in phenol red free RPMI-1640 supplemented with 10% dextran coated charcoal stripped fetal bovine serum (CS-FBS) for 3 days before estrogen or antiestrogen treatment. The tamoxifen resistant (TAMR) cell line was established as described by Shaw et al. (2006). Briefly, the parental MCF-7 cells were continuously exposed for 6 months to 1 μM tamoxifen in phenol red free RPMI 1640 medium containing 10% CS-FBS until the cells developed resistance to the growth inhibitory effect of tamoxifen. MCF-7 cells sensitive to tamoxifen, cultured in the same medium without tamoxifen, were designated as tamoxifen sensitive (TAMS) cells. Cells were seeded onto 6-well plates at a density of 5×10^4 cells per well, in triplicate, in 3 ml of complete medium containing 10% or 0.2% FBS. Cells were cultured under these conditions for up to 10 days with medium changed every other day until harvesting. To compare the cell proliferation rate, the total cell number in each well was quantified with a haemocytometer every 2 days. Cell viability was assessed by using trypan blue.

Test [2] relates to TAMR cells (tamoxifen resistant MCF-7). Nature of the test: Cell number growth assay in estrogen free medium, TAMR cells. The settings on record: 1 μM tamoxifen, 7 days. The test is classed as cell-based, human. On the procedure:
as §2

In a further test the test system is artemin. Nature of the test: Artemin expression by semi-quantitative RT-PCR and Western blot in TAMS/TAMR cells. The class given is cell-based, human. The settings on record: 1 μM tamoxifen, 72 hours. On the procedure: Total RNA was isolated from cultured cells with Trizol reagent (Invitrogen) at 1 ml/10 cm2 according to the manufacturer's instructions. RNA was resuspended in diethyl pyrocarbonate (DEPC)-treated nuclease-free water. RNA samples were further treated with DNase I for 30 min at 37° C. The reaction was stopped by addition of 25 mM EDTA and incubation at 65° C. for 15 min. RNA samples were then purified by extraction in phenol/chloroform (pH 5.2, phenol:chloroform:isoamyl alcohol at 25:24:1) followed by an additional chloroform extraction and ethanol precipitation. Quantification and purity of the RNA was assessed by A260/A280 absorption, and RNA quality was assessed by agarose gel electrophoresis. RNA samples with ratios of A260/A280 greater than 1.6 were stored at −80° C. for further analysis.
One-step reverse transcription (RT)-PCR kit (Qiagen) was used to determine the presence of artemin transcript using a pair of primers: 5′-[…]-3 (forward; SEQ ID NO: 41) and 5′-[…]-3′ (reverse; SEQ ID NO: 42). For RT-PCR, the following procedure was employed. To start, 1 μg of total RNA was diluted to 0.1 μg/μl to minimize the variation of sample handling. This dilution was treated by DNase I for 15 min, followed by inactivation of DNase by adding EDTA to 5 mM and heating to 70° C. for 15 min. […]
Background: Immunoblotting shows a protein as a band on a membrane.

Test [3] has as its system TAMR cells (tamoxifen resistant MCF-7). Briefly: Soft agar colony formation (anchorage independent growth), TAMR cells. The class given is cell-based, human. The settings on record: 1 μM tamoxifen alone, 10 days. How it is done: as §1
To perform soft agar colony formation assays, 50 μl of 0.5% agarose in serum containing medium was plated onto each well of 96-well flat-bottom microplates, as a base agar layer. Next, 5×10^3 cells in a […] mixture of 0.35% agarose in serum containing medium were plated onto the base layer. Subsequently, 100 μl of the medium was added to prevent drying of the agarose gels. For antibody treatment, the antibodies at the indicated concentrations were added into the top agar layer and the culture medium to ensure the complete exposure of cells to antibodies. […] The plate was shaken briefly and then read at 595 nm (test wavelength) and 690 nm (reference wavelength) using the Synergy™ 2 Multi-Mode Microplate Reader (BioTek instruments, Inc., Vermont, USA).

`CC(=O)O[C@H]1C(=O)[C@@]2(C)[C@H]([C@H](OC(=O)c3ccccc3)[C@]3(O)C[C@H](OC(=O)[C@H](O)[C@@H](NC(=O)c4ccccc4)c4ccccc4)C(C)=C1C3(C)C)[C@]1(OC(C)=O)CO[C@@H]1C[C@@H]2O` [paclitaxel]: the “difference in sensitivity to paclitaxel, resistant subline vs parental line” value in the test with BT549 PTX Res cells (BT549-PTX Res vs parental BT549) is reported as ~2 fold. The “sensitivity to paclitaxel in monolayer proliferation, colony formation in soft agar and 3D matrigel growth” value in the test with BT549 PTX Res cells (paclitaxel resistant cells compared to paclitaxel sensitive cells) is reported as “less sensitivity to paclitaxel”. Also, the ARTN expression result with ARTN is “increased ARTN expression”.

On to `CC/C(=C(\c1ccccc1)c1ccc(OCCN(C)C)cc1)c1ccccc1` [tamoxifen], for which the “growth of TAMS cells” value in test [1] was “retained the response to E2 and tamoxifen sensitivity”. In addition, the “growth of TAMR cells” value in test [2] was “loss of response to E2 and of tamoxifen sensitivity”. In addition, the “artemin expression (mRNA and protein)” value is “retained elevated artemin expression” with artemin (TAMR cells) and “markedly abrogated artemin expression” in the test with artemin (TAMS cells). Further, the “colony formation in soft agar” value in test [3] was “did not affect colony formation”.
